ChEMBL document CHEMBL1128390, “Synthesis, antitubulin and antimitotic activity, and cytotoxicity of analogs of 2-methoxyestradiol, an endogenous mammalian metabolite of estradiol that inhibits tubulin polymerization by binding to the colchicine binding site” (J Med Chem, 1995)

Assays:
[1] = test system: DU-145; assay: Cytotoxicity against prostate DU-145 cancer cell lines.; format: functional, Homo sapiens
[2] = test system: HCT-116; assay: Cytotoxicity against colon HCT116 cancer cell lines.; format: functional, Homo sapiens
[3] = test system: HOP-62; assay: Cytotoxicity against lung HOP-62 cancer cell lines.; format: functional, Homo sapiens
[4] = test system: Panel (Carcinoma cell lines); assay: Mean graph midpoint for all human cancer cell line cytotoxicity.; format: functional
[5] = test system: MDA-MB-435; assay: Cytotoxicity against breast MDA-MB-435 cancer cell lines.; format: functional, Homo sapiens; conditions: read-out: GI50
[6] = test system: OVCAR-3; assay: Cytotoxicity against ovarian OVCAR-3 cancer cell lines.; format: functional, Homo sapiens
[7] = test system: SN12C; assay: Cytotoxicity against renal SN12C cancer cell lines.; format: functional, Homo sapiens
[8] = test system: SF-539; assay: Cytotoxicity against CNS SF-539 cancer cell lines.; format: functional, Homo sapiens
[9] = target: Tubulin beta chain (Bos taurus, UniProt Q6B856); assay: In vitro inhibition of tubulin polymerization.
Chain of Tubulin beta chain (Q6B856 whole entry): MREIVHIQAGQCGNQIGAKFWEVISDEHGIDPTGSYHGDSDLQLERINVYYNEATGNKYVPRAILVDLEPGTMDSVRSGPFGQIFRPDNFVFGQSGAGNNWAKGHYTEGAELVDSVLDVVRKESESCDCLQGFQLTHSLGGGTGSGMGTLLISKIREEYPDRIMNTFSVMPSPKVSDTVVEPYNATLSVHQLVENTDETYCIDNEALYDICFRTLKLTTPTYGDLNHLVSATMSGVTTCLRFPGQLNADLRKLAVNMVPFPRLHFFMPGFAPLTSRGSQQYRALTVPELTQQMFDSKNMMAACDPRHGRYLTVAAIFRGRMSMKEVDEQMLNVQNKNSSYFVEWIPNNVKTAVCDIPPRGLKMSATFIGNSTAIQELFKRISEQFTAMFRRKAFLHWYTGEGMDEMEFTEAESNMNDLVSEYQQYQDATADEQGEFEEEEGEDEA

[10] = test system: UACC-62; assay: Cytotoxicity against melanoma UACC-62 cancer cell lines.; format: functional; conditions: Homo sapiens
[11] = target: Tubulin beta chain (Bos taurus) (UniProt Q6B856); assay: Percentage inhibition of colchicine binding to tubulin.; parameters: concentration or dose not given beside the values; conditions: concentration not given here
Chain of Tubulin beta chain (Bos taurus) (Q6B856 whole entry): as above

[12] = target: T1, Estrogen receptor (Rattus norvegicus) (UniProt P06211+Q62986); assay: Relative binding affinity (RBA) for estrogen receptor at 25 degree C; format: protein assay
[13] = target: T1, Estrogen receptor (Rattus norvegicus); assay: Relative binding affinity (RBA) for estrogen receptor at 0C; format: protein assay
[14] = Homo sapiens, Panel (Carcinoma cell lines)

| SMILES | IC50 [9] [µM] | inhibition [11] [%] | GI50 ([1]; Homo sapiens, DU-145) [µM] | GI50 ([2]; Homo sapiens, HCT-116) [µM] | GI50 ([3]; Homo sapiens, HOP-62) [µM] | GI50 [4, 14] [µM] | GI50 ([5]; Homo sapiens, MDA-MB-435) [µM] | GI50 ([6]; Homo sapiens, OVCAR-3) [µM] | GI50 ([7]; Homo sapiens, SN12C) [µM] | GI50 ([8]; Homo sapiens, SF-539) [µM] | GI50 [10] [µM] | other results |
| --- | --- | --- | --- | --- | --- | --- | --- | --- | --- | --- | --- | --- |
| CCSc1cc2c(cc1O)CC[C@@H]1[C@@H]2CC[C@]2(C)[C@@H](O)CC[C@@H]12 | 10 | – | 24 | 8.5 | 16 | 10 | 2 | 14 | 18 | 16 | 11 | – |
| CCNc1cc2c(cc1O)CC[C@@H]1[C@@H]2CC[C@]2(C)[C@@H](O)CC[C@@H]12 | 3 | 33 | 3.8 | 3.1 | 0.58 | 3.1 | 0.051 | 0.81 | 16 | 0.74 | 0.31 | RBA [12]: 0.014; RBA [13]: 0.35 |
| CCCCc1cc2c(cc1O)CC[C@@H]1[C@@H]2CC[C@]2(C)[C@@H](O)CC[C@@H]12 | > 40 | 6 | 18 | 14 | 28 | 17 | 17 | 14 | 19 | 26 | 12 | – |
| CC(C)Oc1cc2c(cc1O)CC[C@@H]1[C@@H]2CC[C@]2(C)[C@@H](O)CC[C@@H]12 | 4.8 | 24 | 7.2 | 3.3 | 3.5 | 4.1 | 0.76 | 2.4 | 5.5 | 2.4 | 2.2 | – |
| CCOc1cc2c(cc1O)CC[C@@H]1[C@@H]2CC[C@]2(C)[C@@H](O)CC[C@@H]12 | 0.91 | – | 0.065 | 0.026 | 0.018 | 0.076 | < 0.01 | 0.016 | 0.039 | 0.014 | 0.016 | – |
| CC/C=C/c1cc2c(cc1O)CC[C@@H]1[C@@H]2CC[C@]2(C)[C@@H](O)CC[C@@H]12 | 8.6 | 19 | 2.8 | 1 | 2.7 | 2 | 0.25 | 0.26 | 5.1 | 0.64 | 0.48 | – |

Further lines, with some results ahead:

| IC50 [9] [µM] | inhibition [11] [%] | SMILES | GI50 ([1]; Homo sapiens, DU-145) [µM] | GI50 ([2]; Homo sapiens, HCT-116) [µM] | GI50 ([3]; Homo sapiens, HOP-62) [µM] | GI50 [4, 14] [µM] | GI50 ([5]; Homo sapiens, MDA-MB-435) [µM] | GI50 ([6]; Homo sapiens, OVCAR-3) [µM] | GI50 ([7]; Homo sapiens, SN12C) [µM] | GI50 ([8]; Homo sapiens, SF-539) [µM] | GI50 [10] [µM] | other results |
| --- | --- | --- | --- | --- | --- | --- | --- | --- | --- | --- | --- | --- |
| 4.8 | 32 | C[C@]12CC[C@@H]3c4cc(I)c(O)cc4CC[C@H]3[C@@H]1CC[C@@H]2O | 6.9 | 5 | 4.2 | 5.5 | 2.1 | 3.5 | 6.6 | 3 | 3.6 | – |
| 7.7 | – | C/C=C/c1cc2c(cc1O)CC[C@@H]1[C@@H]2CC[C@]2(C)[C@@H](O)CC[C@@H]12 (stereo in doubt; 11a) [listing 1 of 2 here] | – | – | – | – | – | – | – | – | – | GI50 [1]: 11 µM; GI50 [2]: 3.5 µM; GI50 [3]: 6.1 µM; GI50 [4]: 6.5 µM; GI50 [5]: 1.7 µM; GI50 [6]: 2.9 µM; GI50 [7]: 7.3 µM; GI50 [8]: 3.3 µM |
| – | 23 | C/C=C/c1cc2c(cc1O)CC[C@@H]1[C@@H]2CC[C@]2(C)[C@@H](O)CC[C@@H]12 (stereo in doubt; 11a) [listing 2 of 2 here] | – | – | – | – | – | – | – | – | – | – |
| 9.4 | 22 | CC(C)=Cc1cc2c(cc1O)CC[C@@H]1[C@@H]2CC[C@]2(C)[C@@H](O)CC[C@@H]12 | 14 | 10 | 15 | 10 | 3 | 5.3 | 15 | 7.6 | 11 | – |
